In patent publication US20080014248A1, “Photosensitizer containing indole-3-alkylcarboxylic acid, and kit for photodynamic therapy containing the same” (priority 2006, published 2008):

Legend:
[1] = tested on: Human lung cancer cells (NCI-H1264 cell) tumor; assay: Treatment of cancer by combination of IAA and IPL in nude mouse (Hematoxylin & Eosin stain, TUNEL assay); assay type: in vivo; conditions: IAA 50 mg/kg intravenous, 4 and 7 days after cancer cell injection, IPL 20 J/cm2 thirty minutes later, biopsy at twelve days, FIG. 6
From the text: Intense pulse light (IPL) flash lamp by Eclipse was used for visible light irradiation. 20 Irradiation of 20 J/cm^2 intensity was used with a IPL apparatus able to irradiate between 515 nm to 1200 nm. After applying transmission gel (PROGEL DA-YO Medical, Seoul, Korea) to areas of tumor formation each region was irradiated twice using IPL. Human lung cancer cells (NCI-[…] cell, 1×10^6) were subcutaneously injected into nude mouse (Charles River Lab. Wilmington, Mass./male, 6 weeks old, weight 22-25 g). […] 4 and 7 days after cancer cell injection, these mice were injected with IAA (50 mg/kg). Thirty minutes after intravenous injection of IAA, mice were irradiated with IPL (20 J/cm2). Twelve days after cancer cell injection, biopsy was done and tunnel stain was also performed. […] Experimental IAA (10 mg/ml in 50 mM NaHCO/2% v/v ethanol/water, pH 7) was prepared. A control group of mice with tumor mass formation and an experimental group of mice injected with IAA (pH 7, 50 mg/kg) were separated. The injected group was again separated into two groups, one group treated with IAA after 4 days of cancer cell injection and the other after 7 days. Thirty minutes after intravenous injection of IAA, mice were irradiated with IPL (20 J/cm2). A TUNEL (Chemicon, Temecula, Calif.) assay kit was used for the present experiment. […]

[2] = Photo-activation of IAA by different wavelength of light, free radical formation by DCF (dichlorofluorescein) assay; assay type: physicochemical; conditions: 1 mM IAA, HL-2000-HP irradiator, FIG. 4
Method: In order to study the effects of different wavelength of light, IAA was irradiated with HL-2000-HP (Ocean Optics, Dunedin, Fla., USA). Free radical formation was measured by DCF (dichlorofluorescein) assay. In order to induce activity of DCFH-DA, DCFH-DA was dissolved to a 1 mM concentration in 100% ethanol. 350 ul of the solution was then added to 1.75 ml of 0.01 N NaOH and allowed reaction for 5, 10, and 20 minutes. The activated DCFH-DA solution was then prepared by mixing 17.9 ml of 25 mM natrium-phosophoric acid buffer solution (pH 7.2). 1 mM of IAA was then administered to the activated DCFH-DA, and using HL-2000HP light irradiator, various wavelength filters (380, 400, 480, 520, 590, 640 nm) (Thorlabs, Inc., Long Beach, Calif., USA) were used to observe any photoactivation of IAA using each wavelength. Absorption was measured using ELISA reader at 490 nm.

[3] = tested on: NCI-H1264 cell; assay: Prevention of cancer by combining IAA and IPL (treatment before appearance of tumor mass, biopsy); assay type: in vivo, nude mouse; conditions: IAA and IPL treatment one, three and five days after NCI-H1264 cell injection, biopsy ten days after injection, FIG. 7
Method: It was observed that the combination of IAA and IPL could induce cancer cell necrosis. However, prevention of histologic or distant metastasis is more important in the treatment of cancer. In order to study the prevention effect, IAA and IPL treatment was performed after cancer cell injection but before the appearance of tumor mass. One, three, and five days after NCI-[…] cell injection, IAA and IPL treatment was performed. Ten days after cancer cell injection, biopsy was done. […] Thus, it can be said that IAA and IPL treatment was effective in the prevention of distant metastasis.

[4] = tested on: Stomach cancer cell line (SNU1, SNU16, SNU601, SNU719), lung cancer cell line (NCI-H157, NCI-H1264), liver cancer cell line (SK-HEP-1); assay: Toxicity experiment of various cell types (MTT assay), IAA/HRP, cancer cells; assay type: cell-based; conditions: 20 hours, FIG. 2a-2c
Method: (§1) Stomach cancer cell line (SNU1, SNU16, SNU601, SNU719, Korean Cell Bank, Seoul, Korea), and lung cancer cell line (NCI-H157, NCI-H1264, Korea Cell Bank, Seoul, Korea) were cultivated in a 5% CO2, 37 °C, 10% FBS, and 50 μg/mL penicillin containing RPMI 1640 culture (WelGene, Daegu, Korea), and liver cancer cell line (SK-HEP-1, Korean Cell Bank, Seoul, Korea) was cultivated in DMEM culture (WelGene, Daegu, Korea) under the same conditions. Fibroblasts have been used for the separation of the foreskin during phimosiectomy. […]
(§2) The cells cultivated in the medium were divided into 24 wells (4×10^4/well), and were then cultivated in a medium without FBS for 24 hours. Cytotoxic effect was measured using MTT (3,4-dimethylthiazol-2-yl)2,5-diphenyltetrazolium bromide) assay (Kim, D. S., Jeon, S. E., Park, K. C. […]
(§3) An HRP (1.2 mg/ml) treated group and a group untreated with HRP was separated, each with a final IAA concentration between 1 and 1000 mM in the culture. […] After adding and dissolving 1 ml of dimethylsufoxide solution in the well, the absorption was measured using ELISA reader at 540 nm. […]

[5] = tested on: normal human fibroblasts; assay: Toxicity experiment of various cell types (MTT assay), IAA/HRP, fibroblasts; assay type: cell-based; conditions: 20 hours, FIG. 2a-2c
Method: as §1, §2, §3

[6] = tested on: G361 human melanoma cell line; assay: G361 cell toxicity experiment (MTT assay), IAA with or without HRP; assay type: cell-based; conditions: 20 hours, G361 cells, FIG. 1
Method: G361 human melanoma cell line (ATCC, Rockville, Md.) was cultivated in a 5% CO2, 37 °C, 10% fetal bovine serum (FBS), and 50 μg/mL penicillin containing RPMI 1640 culture (WelGene, Daegu, Korea).
The cells cultivated in the medium were divided into 24 wells (4×10^4/well), and was then cultivated in a medium without FBS for 24 hours. Cytotoxic effect was measured using MTT (3,4-dimethylthiazol-2-yl)2,5-diphenyltetrazolium bromide) assay (Kim, D. S., Jeon, S. E., Park, K. C. Cell Signal, 16, 81-8, 2004).
An HRP (1.2 mg/ml, Sigma, St. Louis, Mo.) treated group (indicated by the ‘∘’ in FIG. 1) and a group untreated with HRP (indicated by the ‘▪’ in FIG. 1) were separated, each with a final IAA density between 1 and 500 mM in the culture. After cultivating for 20 hours, 0.5 mg/Ml of MTT was added to the culture and cultivated for 4 more hours. After adding and dissolving 1 ml of dimethylsufoxide solution in the well, the absorption was measured using ELISA reader (TECAN, Salzburg, Austria) at 540 nm. The viability rate for the control group was set at 100%.
(Calculations) Cell viability(%)=(experimental group/control group absorption)×100

[7] = tested on: normal human fibroblasts; assay: Toxicity experiment (MTT assay), IAA with UVB irradiation, fibroblasts; assay type: cell-based; conditions: 1 to 1000 mM, 20 hours, FIG. 3
Method: (§4) (Cell Culture) After cultivating G361 human melanoma cell line (ATCC, Rockville, Md.) in a 5% CO2, 37 °C, 10% fetal bovine serum (FBS), 50 μg/mL streptomyocin, and 50 μg/mL penicillin containing DMEM culture, mouse melanoma cell line B16 (Korea Cell Bank, Seoul, Korea) liver cancer cell (SK-HEP-1, Korea Cell Bank, Seoul, Korea) was cultivated in the DMEM culture under the same conditions. Fibroblasts have been used for the separation of the foreskin during phimosiectomy. Following the skin biopsy method of Rheinward and Green (Rheinwald J G, Green H. Serial cultivation of strains of human epidermal keratinocytes; the formation of keratinizing colonies from single cells. Cell 1975;6: 331-43.), the […] were cultivated in a 10% fetal bovine serum (FBS), 50 μg/mL of streptomyocin, and 50 μg/mL of penicillin containing DMEM culture.
(§5) The cells cultivated in the medium were divided into 24 wells (4×10^4/well), and was then cultivated in a medium without FBS for 24 hours. Cytotoxic effect was measured using MTT (3,4-dimethylthiazol-2-yl)2,5-diphenyltetrazolium bromide) assay. An ICA group treated with UVB (100 mJ/cm^2) and a group with ICA alone were separated, each with a final IAA concentration between 1 and 1000 mM in the culture. […] After adding and dissolving 1 ml of dimethylsufoxide solution in the well, the absorption was measured using ELISA reader at 540 nm. […]

[8] = tested on: G361 human melanoma cell line, mouse melanoma cell line B16, liver cancer cell (SK-HEP-1); assay: Toxicity experiment (MTT assay), IAA with UVB irradiation, cancer cells; assay type: cell-based; conditions: 1 to 1000 mM, 20 hours, FIG. 3
Method: as §4, §5

For `O=C(O)Cc1c[nH]c2ccccc12` [IAA, Indole-3-acetic acid], the “tumor necrosis (Hematoxylin & Eosin stain and TUNEL assay)” value [1] was “can induce tumor necrosis”, the “activation of IAA by light (free radical formation, DCF assay)” value ([2]; 480 nm (blue) filter) was “particularly effective” and the “activation of IAA by light (free radical formation, DCF assay)” value ([2]; 520 (green) filter) was “particularly effective”. The “tumor cell growth (biopsy)” value [3] was “not observed in treated tissues”, the “toxicity (cell viability, MTT)” value ([4]; IAA administered with HRP (1.2 mg/ml)) was “toxic to most of the cancer cells” and the “toxicity (cell viability, MTT)” value ([4]; IAA alone, 1 to 1000 mM) was “not toxic to either normal cells or cancer cells”. For the same compound, the “toxicity (cell viability, MTT)” value ([5]; IAA administered with HRP (1.2 mg/ml), normal human fibroblasts) was “not toxic to normal human fibroblasts”, the “toxicity (cell viability, MTT)” value ([5]; IAA alone, 1 to 1000 mM, normal cells (fibroblasts)) was “not toxic to either normal cells or cancer cells” and the “cytotoxic effects (cell viability, MTT)” value ([6]; IAA alone (no HRP), IAA 1 to 500 mM) was “no signs of cytotoxic effects”. For the same compound, the “cytotoxic effects (cell viability, MTT)” value ([6]; IAA and HRP (1.2 mg/ml), IAA density of at least 100 mM) was “definite cytotoxic effects”, the “toxicity (cell viability, MTT)” value ([7]; IAA alone, normal cells (fibroblasts)) was “not toxic to either normal cells or cancer cells” and the “toxicity (cell viability, MTT)” value ([7]; IAA treated with UVB (100 mJ/cm^2), normal human fibroblasts) was “not toxic to normal human fibroblasts”. The “toxicity (cell viability, MTT)” value ([8]; IAA alone) was “not toxic to either normal cells or cancer cells” and the “toxicity (cell viability, MTT)” value ([8]; IAA treated with UVB (100 mJ/cm^2)) was “toxic to most of the cancer cells”.
